Measured values from ChEMBL document CHEMBL1201862, “PubChem BioAssay data set” (2004).
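48-hour exposure; five concentrations; linearly interpolated endpoints. The concentration for 50% growth inhibition is given as GI50.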 Calls of active or inactive are those of the source. Cut-off read from the data, not from the text of the source: active = GI50 up to about 1.1 µM and inactive = higher.

Key:
Test in all cases: NCI anticancer screen, dose series, 48 h
Malme-3M = tested on: Malme-3M
SK-MEL-2 = tested on: SK-MEL-2
786-0 = tested on: 786-0
HOP-62 = tested on: HOP-62
KM12 = tested on: KM12
EKVX = tested on: EKVX
NCI-H23 = tested on: NCI-H23
IGROV-1 = tested on: IGROV-1
SNB-75 = tested on: SNB-75
HCT-15 = tested on: HCT-15
A549 = tested on: A549
SW-620 = tested on: SW-620
UACC-62 = tested on: UACC-62
HL-60 = tested on: HL-60
UO-31 = tested on: UO-31
MOLT-4 = tested on: MOLT-4
NCI-H522 = tested on: NCI-H522
SF-268 = tested on: SF-268
SNB-19 = tested on: SNB-19
LOX IMVI = tested on: LOX IMVI

Row | SMILES | GI50 (Malme-3M) | GI50 (SK-MEL-2) | GI50 (786-0) | GI50 (HOP-62) | GI50 (KM12) | GI50 (EKVX) | GI50 (NCI-H23) | GI50 (IGROV-1) | GI50 (SNB-75) | GI50 (HCT-15) [µM] | GI50 (A549) | GI50 (SW-620) | GI50 (UACC-62) | GI50 (HL-60) | GI50 (UO-31) | GI50 (MOLT-4) | GI50 (NCI-H522) | GI50 (SF-268) | GI50 (SNB-19) | GI50 (LOX IMVI)
1 | Cc1[nH]c2ccccc2c1/C=C/c1c(C)[nH]c2ccccc12 | > 100 µM (inactive) | > 100 µM (inactive) | > 100 µM (inactive) | > 100 µM (inactive) | > 100 µM (inactive) | > 100 µM (inactive) | > 100 µM (inactive) | > 100 µM (inactive) | 31 µM (inactive) | > 100 | > 100 µM (inactive) | > 100 µM (inactive) | > 100 µM (inactive) | > 100 µM (inactive) | > 100 µM (inactive) | > 100 µM (inactive) | – | – | – | –
2 | CCOC(=O)[C@]12C(=C(c3ccccc3)O[C@H]3C=CCC[C@H]31)C(=O)C(=O)N2c1ccccc1 | 65.5 µM (inactive) | > 100 µM (inactive) | > 100 µM (inactive) | > 100 µM (inactive) | 37.7 µM (inactive) | – | > 100 µM (inactive) | – | – | > 100 | > 100 µM (inactive) | – | > 100 µM (inactive) | – | > 100 µM (inactive) | 21.4 µM (inactive) | 24 µM (inactive) | > 100 µM (inactive) | > 100 µM (inactive) | –
3 | Cc1c2c(n(C)c1C)C(=O)C1C(C2=O)C2(C)c3ccccc3C1(C)c1ccccc12 (stereo not drawn) | > 100 µM (inactive) | > 100 µM (inactive) | > 100 µM (inactive) | > 100 µM (inactive) | > 100 µM (inactive) | > 100 µM (inactive) | > 100 µM (inactive) | > 100 µM (inactive) | > 100 µM (inactive) | > 100 | – | > 100 µM (inactive) | > 100 µM (inactive) | > 100 µM (inactive) | > 100 µM (inactive) | > 100 µM (inactive) | – | > 100 µM (inactive) | > 100 µM (inactive) | > 100 µM (inactive)
4 | Cc1ccc(S(=O)(=O)N/N=C/C(C)C)cc1 | > 100 µM (inactive) | > 100 µM (inactive) | > 100 µM (inactive) | > 100 µM (inactive) | > 100 µM (inactive) | > 100 µM (inactive) | > 100 µM (inactive) | > 100 µM (inactive) | 70.6 µM (inactive) | > 100 | > 100 µM (inactive) | > 100 µM (inactive) | > 100 µM (inactive) | > 100 µM (inactive) | > 100 µM (inactive) | > 100 µM (inactive) | – | > 100 µM (inactive) | > 100 µM (inactive) | > 100 µM (inactive)
5 | O=C(O)C#Cc1ccc([N+](=O)[O-])cc1 | > 100 µM (inactive) | > 100 µM (inactive) | > 100 µM (inactive) | > 100 µM (inactive) | > 100 µM (inactive) | > 100 µM (inactive) | > 100 µM (inactive) | > 100 µM (inactive) | – | > 100 | > 100 µM (inactive) | > 100 µM (inactive) | > 100 µM (inactive) | > 100 µM (inactive) | > 100 µM (inactive) | > 100 µM (inactive) | – | > 100 µM (inactive) | > 100 µM (inactive) | > 100 µM (inactive)
6 | CN(C)c1ccc(/C=C2\C[C@H]3[C@@H]4CC=C5C[C@@H](O)CC[C@]5(C)[C@H]4CC[C@]3(C)[C@H]2O)cc1 | 19.9 µM (inactive) | 20.9 µM (inactive) | 18.1 µM (inactive) | 29.4 µM (inactive) | 36 µM (inactive) | 4.81 µM (inactive) | 15.9 µM (inactive) | 19.2 µM (inactive) | 29.2 µM (inactive) | 15.7 | 13.6 µM (inactive) | 24.8 µM (inactive) | 13.7 µM (inactive) | 31 µM (inactive) | 19.3 µM (inactive) | 32 µM (inactive) | – | 17 µM (inactive) | 15.7 µM (inactive) | 8.51 µM (inactive)
7 | CC(=O)c1ccc2c(c1)oc(=O)n2CCN1CCCCC1 | 2.79 µM (inactive) | > 100 µM (inactive) | > 100 µM (inactive) | > 100 µM (inactive) | > 100 µM (inactive) | > 100 µM (inactive) | > 100 µM (inactive) | > 100 µM (inactive) | – | > 100 | – | > 100 µM (inactive) | > 100 µM (inactive) | > 100 µM (inactive) | – | > 100 µM (inactive) | – | > 100 µM (inactive) | > 100 µM (inactive) | > 100 µM (inactive)
8 | O=[N+]([O-])c1ccc(-c2noc(-c3ccc(Cl)cc3)c2C2=NCCN2)cc1 | > 100 µM (inactive) | > 100 µM (inactive) | > 100 µM (inactive) | > 100 µM (inactive) | > 100 µM (inactive) | > 100 µM (inactive) | – | > 100 µM (inactive) | – | > 100 | > 100 µM (inactive) | > 100 µM (inactive) | > 100 µM (inactive) | > 100 µM (inactive) | > 100 µM (inactive) | > 100 µM (inactive) | > 100 µM (inactive) | > 100 µM (inactive) | > 100 µM (inactive) | > 100 µM (inactive)
9 | O=S(=O)(O)c1ccc(/N=N/c2ccc(/N=N/c3c(O)ccc4ccc(S(=O)(=O)O)cc34)cc2)cc1 | > 100 µM (inactive) | > 100 µM (inactive) | > 100 µM (inactive) | > 100 µM (inactive) | > 100 µM (inactive) | > 100 µM (inactive) | > 100 µM (inactive) | > 100 µM (inactive) | – | > 100 | > 100 µM (inactive) | > 100 µM (inactive) | > 100 µM (inactive) | > 100 µM (inactive) | > 100 µM (inactive) | > 100 µM (inactive) | > 100 µM (inactive) | > 100 µM (inactive) | > 100 µM (inactive) | –
10 | CC(=O)Nc1ccc(S(=O)(=O)N/N=C/c2cc(I)cc([N+](=O)[O-])c2O)cc1 | 46.3 µM (inactive) | 41.9 µM (inactive) | > 100 µM (inactive) | – | > 100 µM (inactive) | 60.5 µM (inactive) | 29.5 µM (inactive) | > 100 µM (inactive) | 25.6 µM (inactive) | 75.5 | > 100 µM (inactive) | > 100 µM (inactive) | 30.3 µM (inactive) | 31.5 µM (inactive) | 33.3 µM (inactive) | 32.7 µM (inactive) | – | 32.9 µM (inactive) | 55.3 µM (inactive) | 80.9 µM (inactive)
11 | Cc1c(NC(=O)C(C)(C)Br)c(=O)oc2c(C)c3occc(=O)c3cc12 | 31.1 µM (inactive) | 59.6 µM (inactive) | 53.7 µM (inactive) | 29.6 µM (inactive) | – | > 100 µM (inactive) | 81.5 µM (inactive) | 57 µM (inactive) | 35.7 µM (inactive) | 96.6 | 68.5 µM (inactive) | > 100 µM (inactive) | 67.5 µM (inactive) | > 100 µM (inactive) | 21.3 µM (inactive) | 37.1 µM (inactive) | – | 64.9 µM (inactive) | 87.9 µM (inactive) | 76.9 µM (inactive)
12 | C=C(C)[C@H]1C=C[C@@H](OC(=O)c2cccnc2)[C@@]23CO[C@@](C)([C@H](OC(=O)c4cccnc4)[C@@]4(OC(C)=O)C[C@H](C)[C@H](OCCC)[C@@H]4[C@H]2OC(C)=O)[C@H]13 | – | > 15 µM (inactive) | > 15 µM (inactive) | 10.9 µM (inactive) | > 15 µM (inactive) | > 15 µM (inactive) | > 15 µM (inactive) | > 15 µM (inactive) | 3.82 µM (inactive) | > 15 | – | > 15 µM (inactive) | > 15 µM (inactive) | 3.35 µM (inactive) | > 15 µM (inactive) | 7.1 µM (inactive) | > 15 µM (inactive) | > 15 µM (inactive) | > 15 µM (inactive) | > 15 µM (inactive)
13 | Cc1cccc(-c2nc3c(C(=O)NCCN(C)C)cccc3[nH]2)c1 | – | 1.86 µM (inactive) | 1.59 µM (inactive) | 1.72 µM (inactive) | 0.944 µM (active) | 1.46 µM (inactive) | 1.06 µM (active) | 0.83 µM (active) | 2.2 µM (inactive) | 0.414 | 1.1 µM (active) | 0.352 µM (active) | 1.8 µM (inactive) | 2.29 µM (inactive) | 2.06 µM (inactive) | 0.406 µM (active) | – | 1.58 µM (inactive) | 1.98 µM (inactive) | 0.708 µM (active)
14 | O=c1[nH]c(=O)n(C2OC(CO)C(N(O)Cc3ccc(F)cc3)C2O)cc1Br (stereo not drawn) | – | – | > 100 µM (inactive) | – | > 100 µM (inactive) | > 100 µM (inactive) | > 100 µM (inactive) | > 100 µM (inactive) | > 100 µM (inactive) | – | > 100 µM (inactive) | > 100 µM (inactive) | > 100 µM (inactive) | > 100 µM (inactive) | > 100 µM (inactive) | > 100 µM (inactive) | 13.2 µM (inactive) | > 100 µM (inactive) | > 100 µM (inactive) | > 100 µM (inactive)
15 | Nc1ccc2c(c1)S(=O)(=O)c1cc(N)ccc1-2 | – | > 100 µM (inactive) | > 100 µM (inactive) | > 100 µM (inactive) | > 100 µM (inactive) | > 100 µM (inactive) | > 100 µM (inactive) | > 100 µM (inactive) | – | > 100 | > 100 µM (inactive) | > 100 µM (inactive) | > 100 µM (inactive) | 78.5 µM (inactive) | > 100 µM (inactive) | > 100 µM (inactive) | > 100 µM (inactive) | > 100 µM (inactive) | > 100 µM (inactive) | > 100 µM (inactive)
16 | Cc1nn(-c2ccccc2)c2nc3c(c(C)nn3-c3ccccc3)c(-c3ccc(C(F)(F)F)cc3)c12 | – | – | 60.1 µM (inactive) | > 100 µM (inactive) | > 100 µM (inactive) | > 100 µM (inactive) | > 100 µM (inactive) | – | 39.4 µM (inactive) | > 100 | > 100 µM (inactive) | > 100 µM (inactive) | > 100 µM (inactive) | > 100 µM (inactive) | > 100 µM (inactive) | > 100 µM (inactive) | – | 44.7 µM (inactive) | 96.2 µM (inactive) | > 100 µM (inactive)
